From patent US6197495A, “Methods using the staphylococcus aureus glycyl tRNA synthetase crystalline structure” (SmithKline Beecham Corporation, priority 1998, dated 2001)

Key:
[1] = target: T1, Staphylococcus aureus glycyl tRNA synthetase (GRS), SEQ ID NO:1 (Staphylococcus aureus, UniProt P99129); test: Stopped-flow tryptophan fluorescence measurement of inhibitor binding to GRS
T1 construct: purified enzyme or crude lysate; homodimer
T1 sequence (P99129 1-463): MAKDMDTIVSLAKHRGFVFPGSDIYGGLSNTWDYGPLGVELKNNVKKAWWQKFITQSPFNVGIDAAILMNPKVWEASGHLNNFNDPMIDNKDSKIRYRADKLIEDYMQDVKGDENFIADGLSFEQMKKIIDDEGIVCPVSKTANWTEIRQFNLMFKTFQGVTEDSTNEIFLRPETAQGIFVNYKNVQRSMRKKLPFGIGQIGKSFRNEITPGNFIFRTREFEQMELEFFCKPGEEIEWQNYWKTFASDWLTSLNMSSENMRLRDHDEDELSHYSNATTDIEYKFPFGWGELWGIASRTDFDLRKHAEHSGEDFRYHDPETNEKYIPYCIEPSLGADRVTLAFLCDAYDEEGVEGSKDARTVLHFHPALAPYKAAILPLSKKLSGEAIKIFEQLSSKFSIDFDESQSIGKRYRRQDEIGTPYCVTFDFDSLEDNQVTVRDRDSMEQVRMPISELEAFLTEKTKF
Description: (§1) Glycylsulfmoyladenosine is an analogue of the Gly-AMP reaction intermediate and inhibits GRS catalytic activity as measured by any of the techniques described in the examples below. Estimates of the potency of inhibition are obtained by performing enzyme assays in the presence of a range of inhibitor concentrations, and fitting the effect of inhibitor concentration on enzyme velocity to a four parameter logistic function that allows calculation of an IC50 (the inhibitor concentration at which GRS activity is reduced by half). […] Binding of glycylsulfamoyladenosine to GRS can also be measured directly using stopped-flow fluorescence techniques because enzyme:inhibitor binary complex has around 5% higher tryptophan fluorescence than the free enzyme. Experiments of this type yield the following elementary rate constants for inhibitor binding; kon =1.1×10^6 s^-1.M^-1, koff =2.9s ^-1 .
(1) Effects of ligand binding upon enzyme intrinsic fluorescence (e.g. of tryptophan). Binding of either natural ligands or inhibitors may result in enzyme conformational changes which alter enzyme fluorescence. Using stopped-flow fluorescence equipment, this can be used to define the microscopic rate constants that describe binding. Alternatively, steady-state fluorescence titration methods can yield the overall dissociation constant for binding in the same way that these are accessed through enzyme inhibition experiments.

[2] = target: T1, Staphylococcus aureus glycyl tRNA synthetase (GRS), SEQ ID NO:1; test: Aminoacylation assay of GRS catalytic activity in the presence of a range of inhibitor concentrations; format: biochemical; conditions: S. aureus GRS; four parameter logistic fit; tRNA acylation with radiolabelled glycine, 37° C.; read-out: IC50 (the inhibitor concentration at which GRS activity is reduced by half)
Description: as §1
Assays were performed either using purified S. aureus GRS overexpressed in E. coli, or using crude cell lysate from E. coli overexpressing GRS. The latter contained around 10% of total protein as GRS. Enzyme was stored at -70° C. in 50 mM Tris-HCl buffer (pH 7.8), 10 mM MgCl2 and 10 mM B-mercaptoethanol after flash freezing in liquid N2. […]
The assay procedure was as follows. […] The filters were dried at 70° C. for 1 hour and the levels of radioactivity measured by scintillation counting (Packard Topcount). […]

Q: With `NCC(=O)NS(=O)(=O)OC[C@H]1O[C@@H](n2cnc3c(N)ncnc32)[C@H](O)[C@@H]1O` [glycylsulfamoyladenosine, 5'-O-Glycylsulfamoyladenosine] as the molecule, how does the koff [1] read?
A: 2.9 s⁻¹

Q: And the kon [1]?
A: 1.1e+06 M⁻¹ s⁻¹

Q: And the Kd ([1]; estimate from the ratio of koff and kon)?
A: 2600 nM

Q: What about the IC50 [2] of the same molecule?
A: ~2400 nM
